Key:
[1] = tested on: Neuro2A cells; assay: Toxicity to Neuro2A cells (MTT); type: cell-based; details: for 100 μM absorbance / 100 μM relative viability / 500 μM absorbance / 500 μM relative viability: 12 hours; for 100 μM absorbance / 500 μM absorbance: 570 nm
Experimental: 6. Neuro2A cells were seeded in 96-well plate at a density of 25,000 cells/well the day before the experiment starts;
7. After the cells reach 50˜60% confluency, media was taken out, and 100 μL of fresh media was added to each well;
8. […]
9. After 12 hours' incubation at 37° C., the media was taken out, 100 μL of fresh media was added to each well along with 20 μL of 5 mg/mL of MTT solution (in PBS);
10. After 1.5 hours' incubation at 37° C., media was taken out and 100 μL of DMSO was added to each well, the plate was mixed on shaker for 5 mins;
(§1) Absorbance was measured at 570 nm.
Assay for Determining Toxicity to HEK293 and Neuro2A Cells • 1. HEK293 and Neuro2A cells were seeded in 96-well plate at a density of 25,000 cells/well the day before the experiment starts; • 2. After the cells reach 50˜60% confluency, media was taken out, and 100 μL of fresh media was added to each well; • 3. […] After 12 hours' incubation at 37° C., the media was taken out, 100 μL of fresh media was added to each well along with 20 μL of 5 mg/mL of MTT solution (in PBS); • 5. After 2 hours' incubation at 37° C., media was taken out and 100 μL of DMSO was added to each well, the plate was mixed on shaker for 5 mins; • 6. Absorbance was measured at 570 nm.

[2] = tested on: HEK293 cells; assay: Toxicity to HEK293 cells (MTT); type: cell-based; details: for 100 μM absorbance / 100 μM relative viability: HEK293, 100 μM; for 100 μM absorbance / 100 μM relative viability / 500 μM absorbance / 500 μM relative viability: 12 hours; for 100 μM absorbance / 500 μM absorbance: 570 nm; for 100 μM relative viability / 500 μM relative viability: control = 1; for 500 μM absorbance / 500 μM relative viability: HEK293, 500 μM
Experimental: 1. HEK293 cells were seeded in 96-well plate at a density of 25,000 cells/well the day before the experiment starts;
(§2) 2. After the cells reach 50˜60% confluency, media was taken out, and 100 μL of fresh media was added to each well;
3. F-derivatives were plated at 100 and 500 μM (in duplicates) concentrations;
(§3) 4. After 12 hours' incubation at 37° C., the media was taken out, 100 μL of fresh media was added to each well along with 20 μL of 5 mg/mL of MTT solution (in PBS);
(§4) 5. After 1.5 hours' incubation at 37° C., media was taken out and 100 μL of DMSO was added to each well, the plate was mixed on shaker for 5 mins;
as §1
Assay for Determining Toxicity to HEK293 and Neuro2A Cells • 1. HEK293 and Neuro2A cells were seeded in 96-well plate at a density of 25,000 cells/well the day before the experiment starts; • 2. After the cells reach 50˜60% confluency, media was taken out, and 100 μL of fresh media was added to each well; • 3. Cl-derivatives were plated at 100 and 500 μM (in duplicates) concentrations; • 4. After 12 hours' incubation at 37° C., the media was taken out, 100 μL of fresh media was added to each well along with 20 μL of 5 mg/mL of MTT solution (in PBS); • 5. After 2 hours' incubation at 37° C., media was taken out and 100 μL of DMSO was added to each well, the plate was mixed on shaker for 5 mins; • 6. Absorbance was measured at 570 nm.

[3] = biological target: T1, CD38 (Homo sapiens, UniProt P28907); assay: CD38 activity assay (NGD+ turnover, 295 nm absorbance); type: biochemical
T1 sequence (P28907 1-300): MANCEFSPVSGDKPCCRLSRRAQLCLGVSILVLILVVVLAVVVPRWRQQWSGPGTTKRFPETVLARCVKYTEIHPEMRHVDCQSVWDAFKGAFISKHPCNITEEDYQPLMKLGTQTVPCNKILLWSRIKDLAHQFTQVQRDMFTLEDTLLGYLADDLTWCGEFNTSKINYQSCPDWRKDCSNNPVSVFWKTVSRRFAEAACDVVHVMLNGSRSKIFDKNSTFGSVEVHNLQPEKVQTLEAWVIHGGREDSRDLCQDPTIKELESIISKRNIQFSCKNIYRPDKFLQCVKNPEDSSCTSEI
Experimental: (§5) CD38 (500 nM) in 100 mM phosphate buffer at pH 7.5 was incubated with various concentrations of 2′-deoxy-2′-fluoro-nucleosides and nucleotides for 30 mins at room temperature. 35 μL of the enzyme inhibitor solution was added to a cuvette containing 1 mL of 100 mM phosphate buffer at pH 7.5, containing 200 μM NGD^+. Reaction progress upon initiation by enzyme addition was monitored by 295 nm absorbance.
as §5, with “CD38 Activity Assay: CD38” for “CD38”, “2′-deoxy-2′-chloro-nucleosides were” for “2′-deoxy-2′-fluoro-nucleosides and nucleotides”

[4] = tested on: HEK293 cells; assay: Ribo-F-NR dose response in HEK293 cells (MTT); type: cell-based; details: 12 hours; for absorbance: 570 nm
Experimental: 1. HEK293 cells were seeded in 96-well plate at a density of 10,000 cells/well the day before the experiment starts;
as §2
3. Ribo-F-NR (stock concentration=5.53 mM) were plated at 11, 22, 27, 44, 55, 83 and 111 μM (in triplicates) concentrations;
as §3, §4
6. Absorbance was measured at 570 nm.

[5] = MTT 2 hours, chloro-nucleosides
[6] = control = 1, chloro-nucleosides
[7] = Mus musculus, N2a, 2′-deoxy-2′-fluoro-nucleosides and nucleotides
[8] = Homo sapiens, HEK293, HEK293, 2′-deoxy-2′-fluoro-nucleosides and nucleotides

Row | SMILES | 100 μM absorbance ([1]; MTT 1.5 hours) | 100 μM relative viability ([1]; control = 1) | 500 μM absorbance ([1]; MTT 1.5 hours) | 500 μM relative viability ([1]; control = 1) | 100 μM absorbance ([2]; MTT 1.5 hours) | 100 μM relative viability [2] | 500 μM absorbance ([2]; MTT 1.5 hours) | 500 μM relative viability [2] | EC50 [1, 7] [µM] | EC50 [2, 8] [µM] | other results
1 | NC(=O)c1ccc[n+]([C@@H]2O[C@H](CO)C(O)C2(Cl)Cl)c1 (stereo partly drawn) [β-gem-diCl-NR, 1-(2′-deoxy-2′,2′-dichloro-ribofuranosyl)-nicotinamide] | – | – | – | – | – | – | – | – | – | – | 100 μM absorbance [1, 5]: 2.615; 100 μM relative viability [1, 6]: 1.106; 500 μM absorbance [1, 5]: 2.63; 500 μM relative viability [1, 6]: 1.112; toxicity to Neuro2A (in words) ([1]; at 500 μM): not toxic at 500 μM; 100 μM absorbance [2, 5]: 2.05; 100 μM relative viability ([2]; chloro-nucleosides): 0.8436; 500 μM absorbance [2, 5]: 1.63; 500 μM relative viability ([2]; chloro-nucleosides): 0.6708; kills % of HEK293 cells ([2]; HEK293, at 500 μM): kills 30% at 500 μM; inhibition at 500 µM ([3]; at 500 μM, read-out: CD38 % inhibited): 50%
2 | NC(=O)c1ccc[n+]([C@@H]2O[C@H](COP(=O)([O-])O)C(O)C2F)c1 (some centres unmarked) [ribo-F-NMN, 2′-deoxy-2′-fluoro-ribo-nicotinamide mononucleotide] | 2.2023 | 0.905 | 1.7872 | 0.735 | 1.2275 | 0.54 | 0.9845 | 0.4331 | – | – | EC50 ([1]; 2′-deoxy-2′-fluoro-nucleosides and nucleotides): 1400 µM; EC50 ([2]; HEK293, 2′-deoxy-2′-fluoro-nucleosides and nucleotides): 241 µM
3 | NC(=O)c1ccc[n+]([C@@H]2O[C@H](CO)C(O)C2Cl)c1 (stereo partly drawn) [β-ara-Cl-NR, 1-(2′-deoxy-2′-chloro-arabinofuranosyl)-nicotinamide] | – | – | – | – | – | – | – | – | – | – | 100 μM absorbance [1, 5]: 0; 100 μM relative viability [1, 6]: 0; 500 μM absorbance [1, 5]: 0; 500 μM relative viability [1, 6]: 0; EC50 ([1]; Mus musculus, N2a, 2′-deoxy-2′-chloro-nucleosides): 9 µM; 100 μM absorbance [2, 5]: 0; 100 μM relative viability ([2]; chloro-nucleosides): 0; 500 μM absorbance [2, 5]: 0; 500 μM relative viability ([2]; chloro-nucleosides): 0; EC50 ([2]; Homo sapiens, HEK293, HEK293, 2′-deoxy-2′-chloro-nucleosides): 5 µM
4 | NC(=O)c1ccc[n+]([C@@H]2O[C@H](COP(=O)([O-])O)C(O)C2(F)F)c1 (some centres unmarked) [gem-diF-NMN, 2′-deoxy-2′,2′-difluoro-ribo-nicotinamide mononucleotide] | 1.0774 | 0.443 | 0.0217 | 0.009 | 1.559 | 0.6858 | 0 | 0 | 64 | 118 | CD38 inhibition (in words) ([3]; at 300 μM): inhibited at 300 μM
5 | NC(=O)c1ccc[n+]([C@@H]2O[C@H](CO)[C@@H](O)C2(F)F)c1 [gem-diF-NR, 1-(2′-deoxy-2′,2′-difluoro-ribofuranosyl)-nicotinamide] | 0.8234 | 0.338 | 0.5374 | 0.221 | 1.679 | 0.7386 | 1.43 | 0.6289 | 61 | 846 | –
6 | NC(=O)c1ccc[n+]([C@@H]2O[C@H](CO)C(O)C2F)c1 (some centres unmarked) [ara-F-NR, 1-(2′-deoxy-2′-fluoro-arabinofuranosyl)-nicotinamide] | 2.0227 | 0.831 | 2.0666 | 0.849 | 1.5325 | 0.6741 | 1.25 | 0.5499 | 3840 | 550 | –
7 | NC(=O)c1ccc[n+]([C@@H]2O[C@H](CO)C(O)[C@@H]2F)c1 (stereo partly drawn) [ribo-F-NR, 1-(2-deoxy-2-fluoro-D-ribofuranosyl)-nicotinamide] | 1.8769 | 0.771 | 0.8391 | 0.345 | 0.019 | 0.008358 | 0.0015 | 0.00066 | 281 | 17 | relative viability ([4]; HEK293, 11 μM): 0.8067; absorbance ([4]; HEK293, 11 μM): 0.1041; relative viability ([4]; HEK293, 22 μM): 0.652; absorbance ([4]; HEK293, 22 μM): 0.08411; relative viability ([4]; HEK293, 27 μM): 0.4806; absorbance ([4]; HEK293, 27 μM): 0.062; relative viability ([4]; HEK293, 44 μM): 0.2539; absorbance ([4]; HEK293, 44 μM): 0.03275; relative viability ([4]; HEK293, 55.3 μM): 0.1163; absorbance ([4]; HEK293, 55.3 μM): 0.015; relative viability ([4]; HEK293, 83 μM): 0.04651; absorbance ([4]; HEK293, 83 μM): 0.006; relative viability ([4]; HEK293, 111 μM): 0.008358; absorbance ([4]; HEK293, 111 μM): 0.001078

Reference: patent publication US9790252B2, “2-fluorinated riboses and arabinoses and methods of use and synthesis” (CORNELL UNIVERSITY, priority 2009, dated 2017)
